{"source": "patent US20250002526A1", "about": "“PHARMACEUTICAL COMPOSITION HAVING ANTI-CANCER IMMUNOSTIMULATING EFFECT AND/OR IMMUNE CHECKPOINT INHIBITION POTENTIATING EFFECT” (KYUSHU UNIVERSITY, NATIONAL UNIVERSITY CORPORATION, priority 2021, published 2025)", "key": {"E0771-SULT cells [1]": {"test_system": "E0771-SULT cells", "assay": "Oral cholenoic acid in mice with transplanted E0771-SULT cells: CS production and CD8+ T cell infiltration in tumor", "format": "in vivo, mouse"}, "E.G7-OVA-SULT cells": {"test_system": "E.G7-OVA-SULT cells", "assay": "In vivo tumor growth of E.G7-OVA-SULT cells with OTI T cell transfer", "set-up": "species or system mouse", "conditions": "activated OTI T cells i.v. day 10, cholenoic acid oral days 13, 14 and 15", "description": "In T cell transfer experiment, activated OTII CD4^+ T cells (2×10^6) and OTI CD8^+ T cells (5×10^5) were intravenously injected into tumor-bearing mice (see experimental results (4)).\nCholenoic acid was suspended in 0.5% (w/v) methylcellulose 400 solution (FUJIFILM Wako Pure Chemical Corporation) at a proportion of 50 mg/ml, and a 200-μl portion (10 mg) of the suspension was orally administered to mice (see experimental results (6)). To examine the effect on the tumor infiltration of OTII cells or OTI T cells, 5 mg of cholenoic acid was orally administered three times at intervals of 6 hours in 2 days before the assay.\nCD4^+ T cells or CD8^+ T cells were magnetically selected from the spleen and peripheral lymph nodes of OTII and OTI TCR transgenic mice with Dynabeads mouse CD4 (Invitrogen), and then treated with DETACHaBEAD™ mouse CD4 (Invitrogen) or separated with a CD8a^+ T Cell Isolation Kit (Miltenyi Biotec). […]\nThe growth of tumors was monitored by measuring the vertical diameters of each tumor with a caliper twice a week and calculating the tumor volumes from the following expression."}, "E0771-SULT cells [2]": {"test_system": "E0771-SULT cells", "assay": "Trans-cancer migration assay (CCL21-induced T-cell migration)", "format": "cell-based, mouse", "conditions": "E0771-SULT cells pretreated with cholenoic acid (5 μM)", "source_text": "FIG. 10 is a series of diagrams showing experimental results (6) in Experiment Example 1 (identification of cholenoic acid as a SULT2B1b inhibitor that promotes anti-tumor immunity). […] The data were acquired from two independent experiments, and expressed as mean±SD. * P<0.05; ** P<0.01 (one-way ANOVA followed by Dunnett's post-hoc test). The level of CCL21-induced T-cell migration in E0771-MOCK cells (CCL21+, SULT−) was used as a control for comparison. FIGS. 10B and 10C show results of enzyme kinetic analysis for SULT2B1b inhibition by cholenoic acid (3-OH-5-Chln). SULT2B1b protein (0.3 or 0.6 μM) was preincubated with cholenoic acid (20 or 40 μM) or a vehicle (2% DMSO), and reacted with cholesterol at different concentrations in the presence of 100 μM PAPS (FIG. 10B) or reacted with PAPS at different concentrations in the presence of 10 μM cholesterol (FIG. 10C). The data were fitted to the Michaelis-Menten equation (the left figures in FIGS. 10B and 10C), and their inhibition modes were analyzed with Lineweaver-Burk plots (right figures).\nIn carrying out the migration assay, T cells were loaded on E0771-MOCK cells (expressing only a vector; SULT−) or E0771-SULT cells (SULT+) seeded on Matrigel in an upper chamber."}}, "note": "“Also recorded” adds a separate entry of the source.", "data": [{"smiles": "C[C@H](CCC(=O)O)[C@H]1CC[C@H]2[C@@H]3CC=C4C[C@@H](O)CC[C@]4(C)[C@H]3CC[C@]12C", "note": "[Compound 1, (R)-4-((3S,8S,9S,10R,13R,14S,17R)-3-hydroxy-10,13-dimethyl-2,3,4,7,8,9,10,11,12,13,14,15,16,17-tetradecahydro-1H-cyclopenta[a]phenanthren-17-yl)pentanoic acid]", "values": [{"measurement": "CS production in tumor", "setting": "E0771-SULT cells [1]; oral administration on days 5, 6 and 7, analysed day 8, listed as cholenoic acid", "result": "local reduction in CS production; also recorded: locally inhibited"}, {"measurement": "CD8+ T cell infiltration in tumor", "setting": "E0771-SULT cells [1]; oral administration on days 5, 6 and 7, low CS region on day 8", "result": "CD8^+ T cell infiltration was induced"}, {"measurement": "growth of E.G7-OVA-SULT cells / anti-tumor immunity of OTI T cells", "setting": "E.G7-OVA-SULT cells", "result": "recovery of the effect of OTII cell or OTI T cell transplantation; also recorded: the growth of E.G7-OVA-SULT cells was suppressed"}, {"measurement": "CCL21-induced T-cell migration suppressed by E0771-SULT cells", "setting": "E0771-SULT cells [2]", "result": "suppression effect was not observed; also recorded: recovery"}]}]}
